In patent US8252832B2, “Kinesin inhibitors as cancer therapeutics” (Novartis AG, priority 2007, dated 2012):
Where “and” joins values, the source holds several entries; their conditions need not be identical. Equal entries are not always repeated.

Assays:
[1] = HCT116 tumor xenograft model, host response (body weight, survival, neutrophils); type: in vivo, mouse; details: q4d × 3; for Neutrophils/ul 72 h post-dose +/− S.D.: 72 h after last dose
Description: The cell line HCT-116 has been widely used in the evaluation of mitotic inhibitors such as microtubule disruptors, mitotic kinase inhibitors and KSP inhibitors. A multi-dose efficacy study on a […] (q4d×3) dosing schedule was performed. Experiments were performed using outbred athymic nu/nu mice approximately 6-8 weeks old (Charles River Laboratories, Hollister, Calif.). […] Mice were housed 4-5 animals per cage in clear polycarbonate micro-isolator cages with a 12-hour light, 12-hour dark cycle at temperatures between 70-80 degrees Fahrenheit and 30-70% relative humidity. Food (Purina rodent chow pellets) and water were provided ad libitum. Mice were handled in accordance with Novartis ACUC regulations and guidelines and the ILAR Guide for the Care and Use of Laboratory Animals. Experiments were performed in an AAALAC accredited facility under an ACUC approved protocol.
Compound IIa (free base) and SB-715992 (ispinesib, a KSP inhibitor by Cytokinetics that is in clinical trials; as its free base) were formulated in 20% Captisol® for all the above doses for a dose volume of 8 mL/kg. Doses were adjusted to each animal's body weight.
Female nu/nu mice (Charles River, Hollister, Calif.) were injected subcutaneously in the right flank with 5 million HCT-116 tumor cells suspended in Hank's Balanced Salt Solution (HBSS) in a total volume of 0.1 mL/mouse. For the efficacy studies, mice were randomized 10 days post-implant. […] Tumor volume was calculated as (L×W2)/2. […] Percent treatment/control (T/C) values were calculated using the following formula: % T/C=100×ΔT/ΔC
Since a dose as low as 1.25 mg/kg on a q4d×3 schedule induced regression of HCT116 xenografts, the efficacy study was repeated with a range of doses from 2 to 0.125 mg/kg to observe a dose response and determine how low a dose can be given to induce tumor regression. […] Only the 7.5 mg/kg dose of SB-715992 induced tumors to regress. Additionally, 72 hrs after the last dose, blood was collected to compare the circulating neutrophil levels among groups. Neutrophils were reduced in a dose responsive manner, similar to the tumor efficacy effect.

[2] = test system: MV4; 11 human AML subcutaneous xenograft tumors; assay: Subcutaneous MV4; 11 tumor xenograft model, tumor response; type: in vivo, mouse
Description: Subcutaneous tumor efficacy studies were performed using outbred athymic nu/nu mice approximately 6-8 weeks old (Charles River Laboratories, Hollister, Calif.). The efficacy study in the disseminated disease model was performed using immunodeficient NOD-SCID female mice approximately 7-8 weeks old (Jackson Laboratories, Bar Harbor, Me.). […] Routine animal care and assurance of welfare were as described above.
Human MV4; 11 acute myelogenous leukemia cells were obtained from American Tissue Culture Collection (catalog #CRL-9591, Rockville, Md.) and tested to be free of Mycoplasma sp. and murine viruses in the IMPACT1 PCR assay panel (RADIL, University of Missouri, Columbia, Mo.). For the disseminated disease model, a stable pool of MV4; 11 cells expressing the luciferase gene was received from Fangxian Sun at the Genomics Institute of the Novartis Research Foundation in San Diego, Calif. (MV4; 11-luc). The MV4; 11 cells were grown in Iscove's modified Dulbecco's medium (Mediatech Inc., catalog #15-016-CV) supplemented with 10% fetal bovine serum (JRH Biosciences, catalog #12003-1000M), 4 mM L-glutamine and 5 ng/mL recombinant human […] (GM-CSF) (R&D Systems, catalog #215-GM). MV4; 11-luc were grown in the same media, but with the addition of 2 micrograms/mL of puromycin for selection of luciferase expression. These cells were grown as suspension cultures, maintained at 37° C. in a humidified atmosphere containing 5% carbon dioxide. Cells were cultured for fewer than 10 passages prior to use. Cells were harvested at approximately 2 million cells/mL, and centrifuged at ˜800×g for 5 minutes at 4° C. and then resuspended in a cold HBSS (Mediatech Inc., catalog #21-021-CV) at a concentration of 25 million cells/mL (containing 50% Matrigel™, BD Biosciences, catalog #354234) for implantation subcutaneously (injection volume of 0.2 mL) or at a concentration of 100 million cells/mL for implantation intravenously (i.v.) via the tail vein (injection volume of 0.1 mL). Mice were irradiated with 3 gray for 3 minutes one day prior to the i.v. cell implant.
The compound IIa (free base) and SB-715992 (free base) were formulated in 20% Captisol for a dose volume of 8 mL/kg. Doses were adjusted to each animal's body weight.
For the two efficacy evaluations in the subcutaneous tumor model, 10 million cells combined in a 1:1 mixture of HBSS and Matrigel™ were injected subcutaneously in the right flank in a total volume of 0.2 mL/mouse. […] Tumor volume was calculated as (L×W2)/2.

[3] = Study 2, 0.13 mg/kg, q4d × 3, i.v
[4] = Study 2, 0.25 mg/kg, q4d × 3, i.v
[5] = Study 2, 0.5 mg/kg, q4d × 3, i.v
[6] = Study 2, 1.8 mg/kg, Q4d × 3, i.v
[7] = Study 2, 3.5 mg/kg, Q4d × 3, i.v
[8] = Study 2, 7.5 mg/kg, Q4d × 3, i.v

Compound: CC(C)(C)[C@H](c1nc(-c2cc(F)ccc2F)cn1Cc1ccccc1)N(CC[C@H](N)CF)C(=O)CO [Compound IIa]
- Survival (alive/total) ([1]; 0.125 mg/kg, i.v.): 9/9
- Survival (alive/total) ([1]; 0.25 mg/kg, i.v.): 9/9
- Survival (alive/total) ([1]; 0.5 mg/kg, i.v.): 9/9
- Survival (alive/total) ([1]; 1 mg/kg, i.v.): 9/9
- Survival (alive/total) ([1]; 1.25 mg/kg, i.v.): 9/9
- Survival (alive/total) ([1]; 2 mg/kg, i.v., (body weight loss)): 8/9 (body
- Survival (alive/total) ([1]; 2.5 mg/kg, i.v.): 9/9
- Survival (alive/total) ([1]; 5 mg/kg, i.v., (body weight loss)): 8/9 (body
- CR (complete tumor regressions) ([2]; 0.625 mg/kg, q4d × 3, i.v.): 0
- Δ Tumor volume, Day 24 ([2]; 0.625 mg/kg, q4d × 3, i.v.): −32 ± 172 mm^3
- % Max Regression (Day) ([2]; 0.625 mg/kg, q4d × 3, i.v., D10): 69%
- Δ Tumor volume, Day 24 ([2]; 4 mg/kg, q4d × 3, i.v.): −176 ± 31 mm^3
- % Max Regression (Day) ([2]; 4 mg/kg, q4d × 3, i.v., D60): 100, %
- CR (complete tumor regressions) ([2]; 4 mg/kg, q4d × 3, i.v., listed as COMPOUND IIa): 9
- CR (complete tumor regressions) ([2]; 4 mg/kg, q4d × 3, i.v., listed as compound IIa): 9/9
- CR (complete tumor regressions) [2, 3]: 0
- Δ Tumor volume, Day 21 [2, 3]: 921 ± 341 mm^3
- ΔT/ΔC, Day 21 (%) [2, 3]: 161%
- CR (complete tumor regressions) [2, 4]: 0
- Δ Tumor volume, Day 21 [2, 4]: 765 ± 196 mm^3
- ΔT/ΔC, Day 21 (%) [2, 4]: 133%
- CR (complete tumor regressions) [2, 5]: 0
- Δ Tumor volume, Day 21 [2, 5]: 114 ± 110 mm^3
- ΔT/ΔC, Day 21 (%) [2, 5]: 20%
- % Max. Regression (Day) ([2]; Study 2, 0.5 mg/kg, q4d × 3, i.v, D10): 55 (D10) %
- CR (complete tumor regressions) ([2]; Study 2, 1 mg/kg, q4d × 3, i.v): 6
- Δ Tumor volume, Day 21 ([2]; Study 2, 1 mg/kg, q4d × 3, i.v): −194 ± 27 mm^3
- % Max. Regression (Day) ([2]; Study 2, 1 mg/kg, q4d × 3, i.v, D63): 89 (D63) %
- CR (complete tumor regressions) ([2]; Study 2, 2 mg/kg, q4d × 3, i.v): 5
- Δ Tumor volume, Day 21 ([2]; Study 2, 2 mg/kg, q4d × 3, i.v): −201 ± 23 mm^3
- % Max. Regression (Day) ([2]; Study 2, 2 mg/kg, q4d × 3, i.v, D63): 87 (D63) %

Compound: CC(=O)O[C@H]1C(=O)[C@@]2(C)[C@H]([C@H](OC(=O)c3ccccc3)[C@]3(O)C[C@H](OC(=O)[C@H](O)[C@@H](NC(=O)c4ccccc4)c4ccccc4)C(C)=C1C3(C)C)[C@]1(OC(C)=O)CO[C@@H]1C[C@@H]2O [Paclitaxel, reference compound]
- Survival (alive/total) ([1]; 30 mg/kg, i.p.): 9/9
- CR (complete tumor regressions) ([2]; 1 mg/kg, q4d × 3, i.p.): 7
- Δ Tumor volume, Day 24 ([2]; 1 mg/kg, q4d × 3, i.p.): −151 ± 63 mm^3
- % Max Regression (Day) ([2]; 1 mg/kg, q4d × 3, i.p., D46): 75%
- CR (complete tumor regressions) ([2]; 1 mg/kg, q4d × 3, i.p., listed as paclitaxel): 7/9

Compound: Cc1ccc(C(=O)N(CCCN)[C@@H](c2nc3cc(Cl)ccc3c(=O)n2Cc2ccccc2)C(C)C)cc1 [SB-715992, Ispinesib, reference compound]
- Survival (alive/total) ([1]; 1.75 mg/kg, i.v.): 9/9
- Neutrophils/ul 72 h post-dose +/− S.D. ([1]; 1.75 mg/kg, i.v.): 1026 ± 229 µL⁻¹
- Max. Δ body weight (Day) ([1]; 1.75 mg/kg, i.v., D3): -0.6 ± 0.58 g
- Max. Δ body weight (Day) (%) ([1]; 1.75 mg/kg, i.v., D3): −2.3 ± 0.51%
- Survival (alive/total) ([1]; 3.5 mg/kg, i.v.): 9/9
- Neutrophils/ul 72 h post-dose +/− S.D. ([1]; 3.5 mg/kg, i.v.): 731 ± 391 µL⁻¹
- Max. Δ body weight (Day) ([1]; 3.5 mg/kg, i.v., D3): -0.5 ± 0.37 g
- Max. Δ body weight (Day) (%) ([1]; 3.5 mg/kg, i.v., D3): −2.0 ± 0.44%
- Max. Δ body weight (Day) ([1]; 3.5 mg/kg, i.v., D4): -0.7 ± 0.05 g
- Max. Δ body weight (Day) (%) ([1]; 3.5 mg/kg, i.v., D4): −2.7 ± 0.17%
- Survival (alive/total) ([1]; 7.5 mg/kg, i.v.): 9/9
- Neutrophils/ul 72 h post-dose +/− S.D. ([1]; 7.5 mg/kg, i.v.): 476 ± 112 µL⁻¹
- Max. Δ body weight (Day) ([1]; 7.5 mg/kg, i.v., D4): -0.3 ± 0.05 g
- Max. Δ body weight (Day) (%) ([1]; 7.5 mg/kg, i.v., D4): −1.3 ± 0.25%
- Max. Δ body weight (Day) ([1]; 7.5 mg/kg, i.v., D10): -0.7 ± 1.1 g
- Max. Δ body weight (Day) (%) ([1]; 7.5 mg/kg, i.v., D10): −3.0 ± 2.49%
- Survival (alive/total) ([1]; 15 mg/kg, i.v.): 9/9
- Max. Δ body weight (Day) ([1]; 15 mg/kg, i.v., D7): -2.5 ± 0.2 g
- Max. Δ body weight (Day) (%) ([1]; 15 mg/kg, i.v., D7): −10.6 ± 0.75%
- CR (complete tumor regressions) ([2]; 15 mg/kg, q4d × 3, i.v.): 6/9 and 6
- Δ Tumor volume, Day 24 ([2]; 15 mg/kg, q4d × 3, i.v.): −211 ± 28 mm^3
- % Max Regression (Day) ([2]; 15 mg/kg, q4d × 3, i.v., D60): 98%
- CR (complete tumor regressions) [2, 6]: 0
- Δ Tumor volume, Day 21 [2, 6]: 339 ± 218 mm^3
- ΔT/ΔC, Day 21 (%) [2, 6]: 59%
- CR (complete tumor regressions) [2, 7]: 0
- Δ Tumor volume, Day 21 [2, 7]: 251 ± 132 mm^3
- ΔT/ΔC, Day 21 (%) [2, 7]: 44%
- % Max. Regression (Day) ([2]; Study 2, 3.5 mg/kg, Q4d × 3, i.v, D10): 41 (D10) %
- CR (complete tumor regressions) [2, 8]: 3
- Δ Tumor volume, Day 21 [2, 8]: −204 ± 20 mm^3
- % Max. Regression (Day) ([2]; Study 2, 7.5 mg/kg, Q4d × 3, i.v, D31): 75 (D31) %
